Experimental data as given in PubChem BioAssay AID540258 (Broad Institute, 2011).
Active and inactive are the calls of the source.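 How the source made its calls: active means fitted curve reaching 40% activation at or below the top valid dose tested; inconclusive means flat curve at 30 to 70% activation, or poor fit; inactive means the rest.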

tested on: SK-MEL-5 TRPM1 promoter luciferase reporter, 24 h; assay: activation of TRPM1 promoter luciferase in melanoma cells – SK-MEL-5 cells, cherry-pick samples, dose response (AID 540258);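 further: potency for activators that raise TRPM1 promoter luciferase signal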

SMILES	AC40
O=C(O)c1ccc(N/N=C/c2cccc(C(F)(F)F)c2)cc1	0.488 µM
COc1cc(CNCc2ccccn2)ccc1OCc1ccc(Cl)c(Cl)c1	9.74 µM
C/C(=N/OC(=O)CC(C)C)c1cc(-c2ccc(Cl)cc2)no1	2.65 µM
Brc1ccc(/C=N/Nc2ccccc2)cc1	15.4 µM
CC(=O)c1cnc2nc(SCc3ccccc3)nn2c1C	2.29 µM
Nc1nc(CSc2ccccn2)nc(Nc2ccccc2)n1	1.31 µM
COc1cccc(NC(=O)C(=O)NCCC2CCCCN2S(=O)(=O)c2cccs2)c1 (centres undefined)	4.24 µM
O=Cc1ccc(OCc2ccc3ccccc3c2)cc1	1.4 µM
O=C(Nc1ccccc1)O/N=C/c1ccc(F)cc1	0.883 µM
COc1ccc(C(=O)NN/C(=N/S(=O)(=O)c2ccc(C)cc2)c2ccccc2)cc1	1.48 µM
COc1ccc(-c2ccc3oc(-c4ccsc4)cc(=O)c3c2)cn1	1.79 µM
COc1ccc(C(=O)c2ccc(CC#N)s2)cc1	7.07 µM
CN(N=O)c1ccc(CC2CCc3ccccc32)cc1 (centres undefined)	12.6 µM
COc1cccc(NC(=O)Nc2ccc3c(c2)nnn3C)c1	4.88 µM
CCCCSc1nsc(NC(C)=O)n1	1.28 µM
C1=C(c2cc3ccccc3cn2)CCCC1	1.08 µM
C=CCNC(=O)c1ccc2nc(Cc3ccc(OC)cc3)oc2c1	2.37 µM
Cc1ccc(/C=N/Nc2ccc(Cl)nn2)cc1	1.93 µM
c1ccc(-n2nnc(-c3cccnc3)n2)cc1	8.4 µM
CCc1nc(NC(C)(C)C)c2cnn(-c3ccccc3)c2n1	6.25 µM
Nc1ccccc1C#Cc1ccccc1	0.777 µM
CSc1ccc(-c2nnn(Cc3ccc(C)cc3)n2)cc1	5.08 µM
CCC(=O)Nc1sc(C(=O)Nc2ccccc2F)c(C)c1C(=O)OC	0.568 µM
Cc1ccc(Nc2cc(C)c3c(O)cccc3n2)cc1C	3.4 µM
Cc1ccc(S(=O)(=O)Nc2cccc(-c3ccc(N4CCCCCC4)nn3)c2)cc1	4.9 µM
COc1cccc(C(=O)Nc2ccc(NC(=O)C3CC3)cn2)c1	3.48 µM

SMILES	AC40
COC(=O)Cc1csc(Nc2ccccc2Cl)n1	6.3 µM
CC(C)c1ccc(NC(=O)Cn2ncc3ccccc32)cc1	6.86 µM
COc1ccc2cc(C(=O)NCCc3ccccc3)[nH]c2c1	11.6 µM
Cc1ccc(NC(=O)c2ccc3ccccc3n2)cc1S(=O)(=O)N(C)C	2.37 µM
CS(=O)(=O)N1CCc2cc(C(=O)Nc3ccccc3Br)ccc21	4.96 µM
Cc1nn(-c2ccc(N3CCCCC3)nn2)c(C)c1CCC(=O)Nc1cccc(F)c1	3.23 µM
C/C(=N\OCc1ccc(C#N)cc1)c1ccc(S(=O)(=O)N(C)C)cc1	> 35 µM (inactive)
COc1ccc2cc(CCNC(=O)c3cccs3)c(=O)[nH]c2c1	1.95 µM
COc1cccc(Nc2nc(-c3ccc(O)cc3)cs2)c1	3.18 µM
COc1ccc2c(c1OC)C(=O)N(c1ccc(C)cc1)C2	12.3 µM
Cc1nn(-c2ccccn2)c2c1-c1nc(N)ncc1CC2	2.38 µM
CSc1cccc(NC(=O)c2cnn3ccccc23)c1	1.03 µM
CC1CCc2sc(C(=O)Nc3ccc(C(N)=O)cc3)cc2C1 (centres undefined)	15.4 µM
Oc1oc(-c2ccccc2)nc1C=NCc1ccccc1	11.3 µM
CCN(CC)C(=O)c1cc(-c2ccc(Br)cc2)on1	1.63 µM
O=c1c2ccccc2oc2cc(-c3ccc4cc[nH]c4c3)ccc12	2.25 µM
O=C(Cc1ccccn1)c1ccc(Cl)cc1	1.98 µM
O=c1c(-c2nc3ccccc3s2)cccn1Cc1ccccc1	0.945 µM
Cc1ccc(Nc2nnc(-c3ccccc3N)o2)cc1C	1.59 µM
COc1cccc(-c2cc(C(=O)Nc3ccccc3SC)no2)c1	> 35 µM (inactive)
CC(=O)N(c1ccccc1)c1nnc(-c2cnc(C)cn2)s1	1.55 µM
CCn1c(COc2ccccc2C)nc2ccccc21	9.77 µM
O=C1c2ccccc2C(=O)N1CCc1c[nH]c2ccccc12	2.19 µM
C/C(=N/NC(=O)c1ccncc1)c1ccc(NC(=O)c2ccc(Cl)cc2Cl)cc1	> 35 µM (inactive)
Nc1nc(-c2cc(-c3ccccc3)no2)cs1	0.331 µM
CCCNC(=O)Nc1nc2ccccc2s1	0.513 µM

SMILES	AC40
O=C(N/N=C/c1ccccc1C(F)(F)F)c1ccc(O)cc1	3.44 µM
c1ccc2cc(C3CCCCC3)ncc2c1	29.4 µM
CCC(=O)Nc1ccc(-c2ccc(N3CCC(C)CC3)nn2)cc1	4.63 µM
O=C(N/N=C/c1ccsc1)c1ccc2c(c1)OCO2	3.33 µM
C=CCNc1nc(-c2ccc(Cl)cc2)cs1	0.639 µM
Cc1snc2sc(C(=O)c3ccc(Br)cc3)c(N)c12	1.48 µM
COc1c(C)cccc1C(=O)Nc1ccc(N2CCN(S(C)(=O)=O)CC2)cc1	4.98 µM
Cc1ccc(-n2nnc(-c3ccnc4ccccc34)n2)cc1	3.49 µM
COc1ccc(C(=O)Nc2cc3c4c(c2)CC(=O)N4CCC3)c(OC)c1	6.24 µM
Cc1nc(C(C)NC(=O)CCc2nnc(CCCc3ccccc3)o2)c(C)s1 (centres undefined)	3.83 µM
CCCc1cc(C(=O)Nc2ccc(C(=O)OC)cc2)cs1	16.2 µM
Cc1cccc(C(=O)Oc2ccc(/C=N/O)cc2)c1	2.74 µM
COC(=O)Cc1ccc(NC(=O)c2ccc(C)c(C)c2)cc1	1.49 µM
Cc1ccc(C(=O)O/N=C(\N)c2ccc(Br)cc2)cc1	7.84 µM
Nc1ccc(-c2nnc(-c3ccc(N)cc3)o2)cc1	2.45 µM
CC1CCN(c2oc(-c3ccccc3Cl)nc2C#N)CC1	10.9 µM
COc1cc2c(C)nc3c(cnn3-c3ccccc3)c2cc1OC	2.87 µM
COc1ccc(C(=O)c2c[nH]c3ccccc23)cc1	2.64 µM
Cc1cccc(OC(=O)c2sc3ncn(C)c(=O)c3c2C)c1	6.16 µM
Fc1ccccc1COc1ccc(C(=S)N2CCCC2)cc1	4.34 µM
Cc1ccc2c(CN3CCC(C)CC3)cc(=O)oc2c1C	8.33 µM
COc1cccc(N(C(=O)c2nc3nccc(C)n3n2)c2nc3ccccc3s2)c1	0.495 µM
CCc1ccc(O)c(-c2cc(C(=O)Nc3cccnc3)[nH]n2)c1	2.44 µM
Cc1ccc(OCc2cc(C(=O)N3CC4C[C@@H]5CC3C[C@H](C4)C5)no2)cc1C	2.61 µM
Cc1ccc(CNc2nc(C)cs2)cc1	1.05 µM
Cc1ccc(N(O)C(=O)NCCCCNC(=O)N(O)c2ccc(C)cc2)cc1	15.5 µM

SMILES	AC40
O=C(Cc1ccc(O)cc1)NC1CCCCCC1	10.6 µM
Oc1nc(Nc2ccccc2)sc1/C=C1\C=Nc2ccccc21	9.81 µM
c1cncc(-c2nc3ccccc3s2)c1	3.8 µM
CC1CCN(C(=O)Nc2ccc3nsnc3c2)CC1	13.7 µM
Fc1cc(Br)ccc1COc1ccc(-c2nnco2)cc1	3.08 µM
CCC(C)NC(=O)c1cn(-c2cccc(C)n2)cn1 (centres undefined)	10.6 µM
O=C(NCCC1=CCCCC1)c1ccc(-n2cncn2)cc1	5.08 µM
Cc1ccc(CONC(=O)c2ccc(C)cc2)cc1	6.05 µM
COc1ccc(NC(=O)Nc2ccc(Br)cn2)cc1	3.15 µM
O=C(Nc1ccc(O)cc1)c1c(O)c2c([nH]c1=O)CCCC2	0.664 µM
Cc1cc(CN(C)C(=O)c2ccc3nc(Cc4ccccc4F)oc3c2)on1	14.1 µM
CCN(CC)C(=O)OCc1c(-c2ccccc2)ncc2ccccc12	11.9 µM
CCC(C)NC(=O)c1cc(-c2ccc(OC)cc2)on1 (centres undefined)	0.773 µM
Cc1ccc(NC(=O)Nc2ccc3c(c2)N(C)C(=O)CS3)nc1	6.65 µM
CCC(=O)NCCc1nc2cc(NC(=O)c3ccc(Cl)cc3)ccc2n1C	0.755 µM
Cc1ccsc1CCNC(=O)C1CCC(=O)N(CCc2cccc(F)c2)C1 (centres undefined)	6.83 µM
Cc1ccc(C(=O)N(CCN2CCCCC2)CC2CCCN(C3CCCC3)C2)s1 (centres undefined)	5.39 µM
Cc1nc(NC(C)C)c2cnn(CCc3ccccc3)c2n1	7.11 µM
COc1ccc(/C(C)=N/Nc2nncc3ccccc23)cc1	0.58 µM
O=C(CNc1cccc(F)c1)N1CCc2ccccc2C1	4.43 µM
Cn1c2ccccc2c(=O)c2ccc(-c3ccc4c(c3)OCO4)cc21	0.851 µM
COc1cc(OC)c2c(-c3cccc(/C=C/c4ccc(F)cc4)c3)cc(=O)oc2c1	6.95 µM
CCc1ccc(C(=O)NC2CCCCC2)s1	2.95 µM
Cc1ccc(NC(=O)C2C3/C=C\CCCCC32)cc1 (centres undefined)	4.54 µM
CN1C(=O)C2C=CC1C1C(=O)N(c3ccccc3)C(=O)C21 (centres undefined)	1.89 µM
Clc1ccc(-c2nnc(CCc3ccccc3)o2)c(Cl)c1	2.55 µM

SMILES	AC40
Cc1ccc2c(c1N)C(=O)c1ccccc1C2=O	3.96 µM
O=C(Nc1cccnc1)c1cc(-c2ccc(Cl)cc2)on1	15.3 µM
COc1ccc(Oc2ncnc3sccc23)cc1	6.05 µM
CC(=O)c1ccc(Nc2ccc(-c3ccccc3C)nn2)cc1	4.2 µM
COc1ccc(-n2nc(C(=O)NCC(=O)N3CCN(c4ccccc4)CC3)c3ccccc3c2=O)c(OC)c1	4.77 µM
Cn1c(NC(=O)CCC2CCCCC2)cc(=O)n(C)c1=O	1.49 µM
Cc1ccc(N(C)/N=C/c2ccc(Cl)cc2Cl)nn1	34.2 µM
CCn1c(C(=O)NC2CCC(C)CC2)cc2sccc21 (centres undefined)	8.36 µM
Clc1ccccc1OCc1nnc(-c2ccccc2Br)o1	2.43 µM
COc1ccc2sc(NCc3ccccc3)nc2c1	1.98 µM
COc1cc2sc3cc(NCC[C@@H]4CCCN4C)ccc3c(=O)c2cc1OC	5.18 µM
Cc1ccc(NC(=O)CCCc2ccccc2)nc1	5.72 µM
Oc1ccc(Br)cc1/C=N/N1CCCCC1	1.75 µM
N/C(=N\OC(=O)C1CCCCC1)c1cccc(Br)c1	13.5 µM
c1ccc(-n2ncc3c(NCc4cccs4)ncnc32)cc1	2.66 µM
CCCCC(=O)Nc1sc2c(c1C#N)CC(C)(C)OC2	5.29 µM
Cc1ccc2c(Cl)c(C(=O)Nc3cccnc3)sc2c1	1.19 µM
CC(C)(C)C(=O)c1cnc(Nc2ccccc2Cl)s1	0.832 µM
CC(C)C(=O)Nc1cccc(-c2cnc3ccccc3n2)c1	17.3 µM
CN(c1ccc(O)cc1)c1nc(O)c(C2=c3ccccc3=NC2=O)s1	8.06 µM
Cc1cccc(-n2ncc3c(N4CC(C)CC(C)C4)ncnc32)c1 (centres undefined)	0.749 µM
c1ccc2c(c1)CC/C2=N/Nc1nc2ccccc2[nH]1	0.86 µM
COc1ccc(-c2nnc(SCc3ccccc3)n2N)cc1	5.97 µM
CCCc1cc(-c2ccc3c(c2)COc2c4ccccc4nn2-3)on1	0.145 µM
Nc1nonc1-n1nnc(C(=O)N/N=C/c2ccc(OCc3ccccc3F)cc2)c1CN1CCCCC1	17.1 µM
